Structures are written as SMILES.

For assay [1], the target named is T1, Aurora-A kinase (Homo sapiens, UniProt O14965).
T1 construct: 6His (with spacer region and rTEV protease cleavage site from pFastBac HTc) (N); made in house; host or cells: Spodoptera frugiperda Sf21 insect cells (baculovirus, pFastBac HTc)
T1 sequence (O14965 1-403): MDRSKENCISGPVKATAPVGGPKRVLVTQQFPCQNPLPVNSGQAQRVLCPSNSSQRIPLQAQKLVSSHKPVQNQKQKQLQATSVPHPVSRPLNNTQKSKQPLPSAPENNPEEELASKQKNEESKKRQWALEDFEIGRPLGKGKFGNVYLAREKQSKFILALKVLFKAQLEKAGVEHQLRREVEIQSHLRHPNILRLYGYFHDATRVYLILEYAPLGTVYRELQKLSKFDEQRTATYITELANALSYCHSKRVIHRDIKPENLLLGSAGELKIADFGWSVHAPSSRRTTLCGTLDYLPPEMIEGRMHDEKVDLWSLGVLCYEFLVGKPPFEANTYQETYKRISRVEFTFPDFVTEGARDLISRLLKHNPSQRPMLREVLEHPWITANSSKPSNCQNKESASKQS
In words: In vitro Aurora-A kinase inhibition test. It counts as biochemical.

The test system of assay [2] is SW620 cells. In words: In vitro cell proliferation assay (BrdU incorporation). Type of assay: cell-based. To be noted: SW-620; SW620 human tumour cell line, 48 hours with compound, 2 hour BrdU labelling; read-out: concentration active (50% inhibition of BrdU incorporation). An excerpt: (c) In Vitro Cell Proliferation Assay
This and other assays can be used to determine the ability of a test compound to inhibit the growth of adherent mammalian cell lines, for example the human tumour cell line SW620 (ATCC CCL-227). This assay determines the ability of at test compound to inhibit the incorporation of the thymidine analogue, 5′-bromo-2′-deoxy-uridine (BrdU) into cellular DNA. SW620 or other adherent cells were typically seeded at 1×10^5 cells per well in L-15 media (GIBCO) plus 5% foetal calf serum, 1% L-glutamine (100 μl/well) in 96 well tissue culture treated 96 well plates (Costar) and allowed to adhere overnight. […] The optical density of the wells was then determined at 690 nm wavelength using a Titertek Multiscan plate reader. […]
(Uptake of a labelled nucleoside into DNA is a usual measure of proliferation.)

As for `COc1cc2c(Nc3cc(CC(=O)Nc4cccc(F)c4)[nH]n3)ncnc2cc1OCCCN1CCC[C@H]1CO` [Compound 8, N-(3-fluorophenyl)-2-{3-[(7-{3-[(2S)-2-(hydroxymethyl)pyrrolidin-1-yl]propoxy}-6-methoxyquinazolin-4-yl)amino]-1H-pyrazol-5-yl}acetamide], the IC50 in assay [1] stood at 10 nM; in assay [2] it was 86 nM.
On the same counts, the results for `COc1cc2c(Nc3cc(CC(=O)Nc4cccc(F)c4)[nH]n3)ncnc2cc1OCCCN(C)CCO` [Compound 13, N-(3-fluorophenyl)-2-{3-[(7-{3-[(2-hydroxyethyl)(methyl)amino]propoxy}-6-methoxyquinazolin-4-yl)amino]-1H-pyrazol-5-yl}acetamide] are 1 nM and 79 nM.

The record behind these values is patent US7402585B2, “Substituted quinazoline derivatives as inhibitors of aurora kinases” (AstraZeneca AB, priority 2001, dated 2008).
